Data as given in ChEMBL document CHEMBL4043168, “The design and SAR of a novel series of 2-aminopyridine based LRRK2 inhibitors” (Bioorg Med Chem Lett, 2017).
pIC50: −log10 of the molar value. ≈ marks a conversion by molar mass, not a printed value.

Legend:
[1] = target: T1, Leucine-rich repeat serine/threonine-protein kinase 2 (Homo sapiens, UniProt Q5S007); assay: Inhibition of recombinant human wild type GST-tagged LRRK2 (970 to 2527 residues) at 200 uM preincubated for 30 mins followed by fluorescein-LRRKtide substrate addition after 2 hrs by TR-FRET assay relative to control
[2] = target: Leucine-rich repeat serine/threonine-protein kinase 2 (Homo sapiens, UniProt Q5S007, G2019S)
Description: Inhibition of recombinant human LRRK2 (970 to 2527 residues) G2019S mutant expressed in baculovirus preincubated for 30 mins followed by fluorescein-LRRKtide substrate addition after 2 hrs by TR-FRET assay

[3] = target: T1, Leucine-rich repeat serine/threonine-protein kinase 2; assay: Inhibition of recombinant human wild type GST-tagged LRRK2 (970 to 2527 residues) at 30 uM preincubated for 30 mins followed by fluorescein-LRRKtide substrate addition after 2 hrs by TR-FRET assay relative to control
[4] = target: T1, Leucine-rich repeat serine/threonine-protein kinase 2
Description: Inhibition of recombinant human wild type GST-tagged LRRK2 (970 to 2527 residues) preincubated for 30 mins followed by fluorescein-LRRKtide substrate addition after 2 hrs by TR-FRET assay

[5] = test system: Leucine-rich repeat serine/threonine-protein kinase 2 (Homo sapiens), Q5S007 [G2019S]; details: at 40 µM
Description: Inhibition of recombinant human LRRK2 (970 to 2527 residues) G2019S mutant expressed in baculovirus at 40 uM preincubated for 30 mins followed by fluorescein-LRRKtide substrate addition after 2 hrs by TR-FRET assay

[6] = Aqueous solubility of the compound in pH 7.4; format: physicochemical; details: aqueous medium
[7] = Efflux ratio of apparent permeability from basolateral to apical over apical to basolateral side in MDCK cells; format: ADME, cell-based, Canis lupus familiaris; details: dog
[8] = Intrinsic clearance in rat liver microsomes; format: ADME, microsome; details: read-out: CLH (converted)
[9] = Intrinsic clearance in human liver microsomes; format: ADME, microsome; details: read-out: CLH (converted)
[10] = Apparent permeability in MDCK cells; format: ADME, cell-based, Canis lupus familiaris; details: dog
[11] = target: T1, Leucine-rich repeat serine/threonine-protein kinase 2; assay: Inhibition of recombinant human wild type GST-tagged LRRK2 (970 to 2527 residues) at 22 uM preincubated for 30 mins followed by fluorescein-LRRKtide substrate addition after 2 hrs by TR-FRET assay relative to control
[12] = target: T1, Leucine-rich repeat serine/threonine-protein kinase 2; assay: Inhibition of recombinant human wild type GST-tagged LRRK2 (970 to 2527 residues) at 66.7 uM preincubated for 30 mins followed by fluorescein-LRRKtide substrate addition after 2 hrs by TR-FRET assay relative to control
[13] = test system: Leucine-rich repeat serine/threonine-protein kinase 2 (Homo sapiens), Q5S007 [G2019S]; details: at 200 µM
Description: Inhibition of recombinant human LRRK2 (970 to 2527 residues) G2019S mutant expressed in baculovirus at 200 uM preincubated for 30 mins followed by fluorescein-LRRKtide substrate addition after 2 hrs by TR-FRET assay

Chain of Leucine-rich repeat serine/threonine-protein kinase 2 (Homo sapiens, UniProt Q5S007, G2019S) (Q5S007 whole entry G2019S, the tested form may be a part): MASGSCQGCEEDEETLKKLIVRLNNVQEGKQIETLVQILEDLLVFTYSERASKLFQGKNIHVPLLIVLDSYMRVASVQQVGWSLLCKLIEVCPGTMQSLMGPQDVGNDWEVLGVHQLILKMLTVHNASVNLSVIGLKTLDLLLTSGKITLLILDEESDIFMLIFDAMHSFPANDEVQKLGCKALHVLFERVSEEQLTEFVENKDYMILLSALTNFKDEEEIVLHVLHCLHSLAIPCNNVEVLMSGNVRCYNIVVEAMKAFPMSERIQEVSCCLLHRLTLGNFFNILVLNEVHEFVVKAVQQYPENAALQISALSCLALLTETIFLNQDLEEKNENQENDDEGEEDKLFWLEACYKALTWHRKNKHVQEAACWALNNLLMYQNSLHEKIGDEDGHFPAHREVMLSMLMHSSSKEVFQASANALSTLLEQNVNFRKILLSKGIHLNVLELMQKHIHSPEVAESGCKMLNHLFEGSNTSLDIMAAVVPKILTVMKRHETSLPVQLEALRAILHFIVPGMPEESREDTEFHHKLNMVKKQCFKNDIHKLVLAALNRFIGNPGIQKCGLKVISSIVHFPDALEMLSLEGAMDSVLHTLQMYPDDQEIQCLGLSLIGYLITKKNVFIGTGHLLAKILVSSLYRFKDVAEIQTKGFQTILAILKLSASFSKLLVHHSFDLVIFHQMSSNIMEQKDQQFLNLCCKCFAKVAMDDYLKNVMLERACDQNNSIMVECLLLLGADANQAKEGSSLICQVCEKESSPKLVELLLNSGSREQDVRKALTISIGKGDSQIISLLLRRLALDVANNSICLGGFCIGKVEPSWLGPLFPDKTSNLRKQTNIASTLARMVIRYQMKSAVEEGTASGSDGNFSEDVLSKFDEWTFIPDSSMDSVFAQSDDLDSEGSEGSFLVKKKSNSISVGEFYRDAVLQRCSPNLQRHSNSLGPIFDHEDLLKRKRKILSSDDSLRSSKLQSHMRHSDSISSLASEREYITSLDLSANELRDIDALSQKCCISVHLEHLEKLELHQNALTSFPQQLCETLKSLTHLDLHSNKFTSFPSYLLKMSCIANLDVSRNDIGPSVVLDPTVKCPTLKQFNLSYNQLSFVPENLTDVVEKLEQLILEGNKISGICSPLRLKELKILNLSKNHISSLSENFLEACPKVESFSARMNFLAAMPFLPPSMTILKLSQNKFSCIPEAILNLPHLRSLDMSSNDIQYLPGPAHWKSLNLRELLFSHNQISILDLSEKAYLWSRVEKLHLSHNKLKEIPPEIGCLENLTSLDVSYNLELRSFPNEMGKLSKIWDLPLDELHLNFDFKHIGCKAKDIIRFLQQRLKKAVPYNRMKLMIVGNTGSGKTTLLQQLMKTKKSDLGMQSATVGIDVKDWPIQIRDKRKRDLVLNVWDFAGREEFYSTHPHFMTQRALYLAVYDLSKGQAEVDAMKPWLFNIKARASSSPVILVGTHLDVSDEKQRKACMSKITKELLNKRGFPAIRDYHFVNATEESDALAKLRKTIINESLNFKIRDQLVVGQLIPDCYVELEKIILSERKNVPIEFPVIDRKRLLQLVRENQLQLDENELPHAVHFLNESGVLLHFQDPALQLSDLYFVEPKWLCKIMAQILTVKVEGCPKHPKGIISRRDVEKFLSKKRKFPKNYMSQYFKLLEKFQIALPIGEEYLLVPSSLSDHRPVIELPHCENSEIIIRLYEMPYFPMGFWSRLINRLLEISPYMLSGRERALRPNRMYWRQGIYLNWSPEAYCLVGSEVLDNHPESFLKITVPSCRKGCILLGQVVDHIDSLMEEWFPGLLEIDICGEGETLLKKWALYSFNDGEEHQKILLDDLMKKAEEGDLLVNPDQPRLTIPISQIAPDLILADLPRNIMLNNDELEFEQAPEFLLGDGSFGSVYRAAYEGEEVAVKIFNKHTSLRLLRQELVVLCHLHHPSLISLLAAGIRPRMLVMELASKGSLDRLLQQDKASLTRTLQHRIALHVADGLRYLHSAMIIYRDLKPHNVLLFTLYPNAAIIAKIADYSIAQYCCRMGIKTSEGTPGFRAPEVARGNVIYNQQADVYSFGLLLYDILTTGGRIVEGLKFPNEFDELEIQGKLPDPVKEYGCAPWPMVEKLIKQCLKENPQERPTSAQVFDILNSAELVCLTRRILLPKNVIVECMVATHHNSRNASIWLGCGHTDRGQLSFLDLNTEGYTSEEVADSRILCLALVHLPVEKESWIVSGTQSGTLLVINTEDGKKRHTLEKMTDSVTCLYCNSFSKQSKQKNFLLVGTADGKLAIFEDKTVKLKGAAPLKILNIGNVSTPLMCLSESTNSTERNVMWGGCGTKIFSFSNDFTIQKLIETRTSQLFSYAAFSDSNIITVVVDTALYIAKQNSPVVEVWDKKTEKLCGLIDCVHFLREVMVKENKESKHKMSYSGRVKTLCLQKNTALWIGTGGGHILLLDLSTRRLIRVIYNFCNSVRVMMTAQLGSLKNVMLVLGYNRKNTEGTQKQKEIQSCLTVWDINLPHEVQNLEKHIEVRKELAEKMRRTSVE
T1 sequence (Q5S007 whole entry, the tested form may be a part): as the sequence (Q5S007 whole entry G2019S, the tested form may be a part) above, with S2019G counted along it
Chain of Leucine-rich repeat serine/threonine-protein kinase 2 (Homo sapiens), Q5S007 [G2019S] (Q5S007 whole entry G2019S): as the sequence (Q5S007 whole entry G2019S, the tested form may be a part) above

SMILES	pIC50 [2]	pIC50 [4]	also measured
Cn1cc(-c2cc(-c3ccc4[nH]ccc4c3)cnc2N)cn1	4.89	–	inhibition [1]: 75%
Cc1ccc(-c2cnc(N)c(-n3cc(C)nn3)c2)cc1	5.04	–	inhibition [3]: 70%
Nc1ncc(-c2ccc3[nH]ccc3c2)cc1-c1nnc(C2CC2)o1	5.80	5.89	–
Cc1ccc(-c2cnc(N)c(-c3cnc(C)o3)c2)cc1	4.96	4.62	–
Cn1ccc(-c2cc(-c3ccc4[nH]ccc4c3)cnc2N)n1	–	–	inhibition [5]: 65%; inhibition [1]: 48%
Cc1ccc(-c2cnc(N)c(-c3cnn(C)c3)c2)cc1	5.17	4.80	solubility [6]: 11 µg/mL (≈ 41.6 µM); efflux ratio [7]: 0.55; CLint scaled [8]: 283 mL/min/kg; CLint scaled [9]: 100 mL/min/kg; Papp [10]: 16.9 ×10⁻⁶ cm/s
CCc1nnc(-c2cc(-c3ccc4[nH]ccc4c3)cnc2N)o1	5.54	–	inhibition [11]: 77%
Cc1ccc(-c2cnc(N)c(-c3cn(C)cn3)c2)cc1	4.24	–	inhibition [1]: 60%
CCn1cc(-c2cc(-c3ccc(C)cc3)cnc2N)cn1	4.92	4.92	–
Cn1cc(-c2cc(-c3ccc4c(ccn4C)c3)cnc2N)cn1	5.24	–	inhibition [3]: 64%
Cc1nnc(-c2cc(-c3ccc4[nH]ccc4c3)cnc2N)o1	5.44	–	–
Cc1ccc(-c2cnc(N)c(-c3cn[nH]c3)c2)cc1	4.89	–	inhibition [12]: 72%
CCNc1nc(Nc2cc(F)c(C(=O)N3CCOCC3)cc2OC)ncc1C(F)(F)F	7.34	7.01	–
Cc1ccc(-c2cnc(N)c(-c3nnc(C4CC4)o3)c2)cc1	5.66	5.64	–
Cc1ccc(-c2cnc(N)c(-c3cnn(C)c3C)c2)cc1	–	–	inhibition [13]: 62%; inhibition [1]: 49%
